Assay results published in paper PMC6503114, “Application of Antimicrobial Peptides of the Innate Immune System in Combination With Conventional Antibiotics—A Novel Way to Combat Antibiotic Resistance?” (Frontiers in Cellular and Infection Microbiology, 2019).
Where a SMILES comes first, the peptide text is derived from it. Bridges are numbered along the chain shown (N, C = ends).

Experiments:
E. coli ML-35p = experiment: microbe, parasite or virus in culture; format: cell-based, Escherichia coli; conditions: median of 3–6 experiments, value in square brackets = twice the maximal tested concentration
Experimental: Prior to the “checkerboard” synergy test the minimal inhibitory concentrations (MIC) of individual substances were determined using broth microdilution assay. Testing was performed in 60-well polystyrene Terasaki microplates with V-shaped bottom generally according to the guidelines of the European Committee for Antimicrobial Susceptibility Testing with subtle modifications designed for AMP testing (Tossi et al., [1997]; Wiegand et al., [2008]). Cultivation of bacteria was carried out in 2.1% Müller-Hinton broth at 37°C with shaking. Two-fold serial dilutions of peptides, antibiotics and other antimicrobials were made with 10 mM sodium phosphate buffer, pH 7.4, containing 0.1% of BSA. The plates were preliminary incubated with 0.1% BSA for 1 h at 37°C to reduce a non-specific binding of peptides to the plates. After that BSA was removed, and serial dilutions were added into the plate wells in triplicates followed by the same volume of the suspension of bacterial cells in logarithmic phase of growth in concentration of 1 × 10^6 CFU/ml. After the 18 h overnight incubation at 37°C, the MIC value for each compound was determined as its lowest concentration completely inhibiting the visible growth of bacteria. The final results were calculated as median values based on 3–6 independent experiments.

K562 = conditions: susceptible K562 cell line
Experimental: (§1) The human erythromyeloid leukemia cell line K562 was obtained from the collection of the Institute of Cytology RAS (Saint Petersburg, Russia) and cultured in RPMI-1640 medium containing gentamicin (100 μg/ml) and 10% of fetal bovine serum at 37°C, 5% CO2. […] Drug resistance was maintained by monthly selection with the antibiotic (2 μg/ml in the culturing medium). Doxorubicin was removed from the medium 3 days prior to beginning any experiments. Before the testing K562 cells were washed twice with PBS and resuspended in RPMI-1640 in the same way as the other cell types.
(§2) We calculated Fractional Effective Concentration Index (FECI), which could be seen as a particular case of the interaction index (I) proposed by Berenbaum ([1977]) or of the similar combination index (CI) proposed by Chou and Talalay ([1983]), according to the equation below: […]
(§3) Here, [MEC A] and [MEC B] are the minimum effective concentrations (MEC) of substances A and B, when they are used alone. […] [A] and [B] are respective concentrations of substances A and B in their combination, where the same statistically significant difference is detected. A non-parametric Mann-Whitney U-test (p < 0.05 or p < 0.01) was used for the mentioned statistical comparison.
(§4) We have chosen the same intervals as that of FICI to determine synergy, additivity, independent action, and antagonism based on the minimal FECI values. However, in case of cytotoxic or hemolytic effect we were interested mainly in testing the possibility of additive or synergistic interaction itself, and not in assessing the exact magnitude of such interaction. Thus, in contrast to the “checkerboard titration” method used for combined antimicrobial activity investigation, studying the combined cytotoxic effect, we considered only two combinations of concentrations for the substances A and B in the mixture: • (½ MEC A + ½ MEC B), which, if found effective, provides the FECI value of 1 (the threshold value for additivity); • (¼ MEC A + ¼ MEC B), which, if found effective, provides the FECI value of 0.5 (the threshold value for synergetic interaction).
(§5) When action on tumor cells was tested in combination with antitumor antibiotic the lower concentrations up to ( 1/16 MEC A + 1/16 MEC B) as in checkerboard titration were additionally examined to assess the magnitude of synergistic effect more precisely. The final conclusion was made based on the three independent experiments.
(§6) Standard MTT-test (Mosmann, [1983]) was used for the examination of the cytotoxic activity of antimicrobial compounds and their combinations toward varied eukaryotic cells. Briefly, cell suspensions in RPMI-1640 prepared as described in Eukaryotic Cells were dispensed into the 96-well microplates (2 × 10^5 cells/well). Then, serial dilutions of AMPs, or other antibiotic compounds, or their mixtures in RPMI-1640 were added. In positive controls (100% cell survival) the according volume of RPMI-1640 without test substances was added instead. The final volume in each well was 100 μl. Negative controls (0% cell survival) were made with 100 μl of the sterile RPMI-1640. The plates were incubated at 37°C under 5% CO2 for 24 h. Four hours before the end of incubation, 10 μl of metabolic marker MTT−3-(4,5-dimethylthiazol-2-yl)-2,5-diphenyltetrazolium bromide (5 mg/ml, diluted in PBS) was added to each well. Incubation was stopped by adding 90 μl of isopropanol containing 0.04 M HCl. Content of the wells was thoroughly mixed, so that the formazan crystals, formed in case of the reduction of MTT in presence of actively metabolizing cells, were fully dissolved.

[1] = system: doxorubicin-resistant K562 tumor cells
Experimental: as §1, §2, §3, §4, §5, §6

Row | Compound | MIC (E. coli ML-35p) | MEC (K562) [µg/mL] | MEC ([1]; doxorubicin-resistant K562 cell line) [µg/mL] | enhancement in MEC values comparing susceptible and resistant cell lines ([1]; doxorubicin-resistant vs susceptible K562) [times]
1 | CC[C@H](C)[C@@H]1NC(=O)[C@H](CC(C)C)NC(=O)[C@@H]2CSSC[C@@H]3NC(=O)[C@H](CO)NC(=O)[C@@H](NC(=O)[C@@H](N)C(C)C)CSSC[C@@H](C(=O)N[C@H](C(=O)N[C@@H](CCCNC(=N)N)C(=O)N[C@H](C(=O)O)C(C)C)[C@@H](C)O)NC(=O)[C@H](CSSC[C@H](NC(=O)[C@H](Cc4ccccc4)NC(=O)[C@H](C(C)C)NC(=O)[C@H](CC(C)C)NC(=O)[C@H](CCCNC(=N)N)NC3=O)C(=O)N[C@@H](CCCNC(=N)N)C(=O)N[C@@H](CCCNC(=N)N)C(=O)N[C@@H]([C@@H](C)O)C(=O)N[C@@H](CCC(=O)O)C(=O)N[C@@H](CC(C)C)C(=O)N[C@@H](CCCNC(=N)N)C(=O)N[C@@H](C(C)C)C(=O)NCC(=O)N[C@@H](CC(N)=O)C(=O)N2)NC(=O)[C@H](Cc2ccc(O)cc2)NC(=O)[C@H]([C@@H](C)O)NC(=O)[C@H](Cc2ccccc2)NC(=O)[C@H](CO)NC(=O)[C@H](C(C)C)NC(=O)CNC(=O)CNC1=O [HNP-4] (H-VCSCRLVFCRRTELRVGNCLIGGVSFTYCCTRV-OH; disulfide 2-30, 4-19, 9-29 (inferred); N-terminus and C-terminus assumed) | >100 [200] μM | – | – | –
2 | COc1cccc2c1C(=O)c1c(O)c3c(c(O)c1C2=O)C[C@@](O)(C(=O)CO)C[C@@H]3O[C@H]1C[C@H](N)[C@H](O)[C@H](C)O1 [doxorubicin] | – | 1 | 100 | 100
